Patent US9670162B2, “Mitochondrial aldehyde dehyrogenase-2 modulators and methods of use thereof” (The Board of Trustees of the Leland Stanford Junior …, priority 2013, dated 2017)

Key:
MLM stability T1/2 = format: in vitro ADME; conditions: mouse, liver microsomes
Protocol: (§1) In vitro ADMET of compounds of the present disclosure was carried out according to known methods in the art. Below are data for certain compounds of the present disclosure.

[1] = Plasma protein binding (PPB), rat; format: in vitro ADME
Protocol: as §1

CYP1A2 = molecular target: T1, CYP1A2 (Homo sapiens, UniProt P05177); assay: Cyp inhibition 1A2; format: in vitro ADME; design: inhibition: dose or concentration left out as unconfirmed
T1 sequence (P05177 1-516): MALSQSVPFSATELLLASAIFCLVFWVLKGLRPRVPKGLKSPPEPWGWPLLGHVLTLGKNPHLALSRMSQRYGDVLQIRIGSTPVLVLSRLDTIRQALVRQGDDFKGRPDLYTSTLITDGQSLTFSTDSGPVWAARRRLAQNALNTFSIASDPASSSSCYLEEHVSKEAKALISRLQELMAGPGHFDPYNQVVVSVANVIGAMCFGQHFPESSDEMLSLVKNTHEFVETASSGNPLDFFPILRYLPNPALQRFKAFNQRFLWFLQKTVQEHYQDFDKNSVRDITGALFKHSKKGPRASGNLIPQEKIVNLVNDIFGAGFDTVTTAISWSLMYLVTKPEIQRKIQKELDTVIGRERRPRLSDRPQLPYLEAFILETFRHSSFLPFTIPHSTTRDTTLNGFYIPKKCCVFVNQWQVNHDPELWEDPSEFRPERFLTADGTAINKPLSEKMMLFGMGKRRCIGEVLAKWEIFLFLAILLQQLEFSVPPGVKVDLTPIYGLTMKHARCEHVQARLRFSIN
Protocol: as §1

Plasma stability, human = format: in vitro ADME
Protocol: as §1

CYP3A4 = CYP3A4 (Homo sapiens, UniProt P08684); assay: Cyp inhibition 3A4; format: in vitro ADME; design: inhibition: dose or concentration left out as unconfirmed
Protocol: as §1

[2] = tested on: mice treated with PO 5 g/kg of EtOH; assay: Mouse pharmacodynamics (PD) study after EtOH; format: in vivo
Protocol: Mice (male C57BL6 (8 to 9 weeks, 20-22 g)) were treated with PO […] of EtOH. Then PO 40 mg/kg or 60 mg/kg compound 161 were administered to the mice. […] FIG. 6 is a graph showing the behavior of mice at 120 min, 180 min, and 300 min. FIG. 7 is a graph showing the alcohol concentration (mg/dL) at 75 min and 180 min.
A PD study of IV administration of compound 161 was also carried out. The mice were treated with PO 5 g/kg of alcohol and were then treated with 10 mg/kg of compound 161 administered through IV. […] FIG. 8 is a graph showing the blood alcohol concentration (mg/dL) versus time (hr).

Aqueous solubility = format: physicochemical
Protocol: as §1

[3] = Plasma protein binding (PPB), human; format: in vitro ADME
Protocol: as §1

CYP2C9 = CYP2C9 (Homo sapiens, UniProt P11712); assay: Cyp inhibition 2C9; format: in vitro ADME
Protocol: as §1

CYP2D6 = CYP2D6 (Homo sapiens, UniProt P10635); assay: Cyp inhibition 2D6; format: in vitro ADME
Protocol: as §1

CYP2C19 = CYP2C19 (Homo sapiens, UniProt P33261); assay: Cyp inhibition 2C19; format: in vitro ADME; design: inhibition: dose or concentration left out as unconfirmed
Protocol: as §1

hERG channel = hERG channel (Homo sapiens, UniProt Q12809); assay: hERG channel patch-clamp; format: cell-based
HLM stability T1/2 = format: in vitro ADME; conditions: human, liver microsomes; read-out: metabolism (HLM, t1/2)
Protocol: as §1

Chain of CYP3A4 (P08684 whole entry): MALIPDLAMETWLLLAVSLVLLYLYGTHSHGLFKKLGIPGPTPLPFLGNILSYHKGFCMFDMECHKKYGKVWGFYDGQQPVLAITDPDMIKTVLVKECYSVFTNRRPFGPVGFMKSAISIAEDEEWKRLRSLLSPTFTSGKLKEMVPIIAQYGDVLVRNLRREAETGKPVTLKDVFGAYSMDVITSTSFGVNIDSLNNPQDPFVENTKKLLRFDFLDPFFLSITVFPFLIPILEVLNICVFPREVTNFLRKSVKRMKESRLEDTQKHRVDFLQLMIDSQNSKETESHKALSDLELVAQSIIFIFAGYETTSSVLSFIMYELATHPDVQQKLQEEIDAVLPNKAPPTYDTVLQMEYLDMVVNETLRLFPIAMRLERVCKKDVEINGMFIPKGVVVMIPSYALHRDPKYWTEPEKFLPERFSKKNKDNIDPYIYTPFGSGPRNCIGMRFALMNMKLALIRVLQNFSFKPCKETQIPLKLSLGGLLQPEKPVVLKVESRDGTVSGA
Chain of CYP2C19 (P33261 whole entry): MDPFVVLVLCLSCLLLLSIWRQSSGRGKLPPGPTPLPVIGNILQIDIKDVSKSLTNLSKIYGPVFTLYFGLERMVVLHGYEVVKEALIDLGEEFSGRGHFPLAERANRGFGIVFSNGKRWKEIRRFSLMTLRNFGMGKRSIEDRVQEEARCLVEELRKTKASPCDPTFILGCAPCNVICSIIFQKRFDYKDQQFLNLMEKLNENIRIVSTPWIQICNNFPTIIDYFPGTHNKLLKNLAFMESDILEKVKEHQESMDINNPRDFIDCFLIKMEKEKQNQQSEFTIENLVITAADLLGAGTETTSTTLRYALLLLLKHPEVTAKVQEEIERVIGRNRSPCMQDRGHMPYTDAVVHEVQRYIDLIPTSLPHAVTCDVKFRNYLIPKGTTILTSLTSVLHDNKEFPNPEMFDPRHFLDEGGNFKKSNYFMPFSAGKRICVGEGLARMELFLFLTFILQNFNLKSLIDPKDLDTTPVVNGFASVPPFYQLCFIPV
Chain of CYP2C9 (P11712 whole entry): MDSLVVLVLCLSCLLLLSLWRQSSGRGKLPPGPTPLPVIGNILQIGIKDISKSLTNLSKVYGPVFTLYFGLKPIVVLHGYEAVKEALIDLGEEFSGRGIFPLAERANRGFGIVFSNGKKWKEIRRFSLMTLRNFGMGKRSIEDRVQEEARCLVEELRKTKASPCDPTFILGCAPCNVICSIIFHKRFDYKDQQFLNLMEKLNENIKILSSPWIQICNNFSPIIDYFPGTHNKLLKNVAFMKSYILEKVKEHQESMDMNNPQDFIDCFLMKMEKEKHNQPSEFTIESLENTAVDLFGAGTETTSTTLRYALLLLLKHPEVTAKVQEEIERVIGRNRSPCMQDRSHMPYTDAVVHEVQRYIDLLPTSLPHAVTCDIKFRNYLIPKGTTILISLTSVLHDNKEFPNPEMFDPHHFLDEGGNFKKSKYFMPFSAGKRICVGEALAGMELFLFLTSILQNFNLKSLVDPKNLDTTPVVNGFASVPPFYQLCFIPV
Chain of CYP2D6 (P10635 whole entry): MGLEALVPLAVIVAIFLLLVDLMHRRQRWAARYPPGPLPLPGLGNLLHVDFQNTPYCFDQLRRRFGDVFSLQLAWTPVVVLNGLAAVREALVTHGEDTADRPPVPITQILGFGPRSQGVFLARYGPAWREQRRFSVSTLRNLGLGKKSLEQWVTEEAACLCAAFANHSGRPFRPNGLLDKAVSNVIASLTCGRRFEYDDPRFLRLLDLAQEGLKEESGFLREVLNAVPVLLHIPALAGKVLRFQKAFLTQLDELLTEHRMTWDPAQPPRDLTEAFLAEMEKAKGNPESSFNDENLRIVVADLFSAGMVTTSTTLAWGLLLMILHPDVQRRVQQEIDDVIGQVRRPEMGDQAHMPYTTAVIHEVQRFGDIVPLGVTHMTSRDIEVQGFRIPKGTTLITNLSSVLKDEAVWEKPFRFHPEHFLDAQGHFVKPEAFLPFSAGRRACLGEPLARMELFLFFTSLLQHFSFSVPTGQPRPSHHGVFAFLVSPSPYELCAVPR
Chain of hERG channel (Q12809 whole entry): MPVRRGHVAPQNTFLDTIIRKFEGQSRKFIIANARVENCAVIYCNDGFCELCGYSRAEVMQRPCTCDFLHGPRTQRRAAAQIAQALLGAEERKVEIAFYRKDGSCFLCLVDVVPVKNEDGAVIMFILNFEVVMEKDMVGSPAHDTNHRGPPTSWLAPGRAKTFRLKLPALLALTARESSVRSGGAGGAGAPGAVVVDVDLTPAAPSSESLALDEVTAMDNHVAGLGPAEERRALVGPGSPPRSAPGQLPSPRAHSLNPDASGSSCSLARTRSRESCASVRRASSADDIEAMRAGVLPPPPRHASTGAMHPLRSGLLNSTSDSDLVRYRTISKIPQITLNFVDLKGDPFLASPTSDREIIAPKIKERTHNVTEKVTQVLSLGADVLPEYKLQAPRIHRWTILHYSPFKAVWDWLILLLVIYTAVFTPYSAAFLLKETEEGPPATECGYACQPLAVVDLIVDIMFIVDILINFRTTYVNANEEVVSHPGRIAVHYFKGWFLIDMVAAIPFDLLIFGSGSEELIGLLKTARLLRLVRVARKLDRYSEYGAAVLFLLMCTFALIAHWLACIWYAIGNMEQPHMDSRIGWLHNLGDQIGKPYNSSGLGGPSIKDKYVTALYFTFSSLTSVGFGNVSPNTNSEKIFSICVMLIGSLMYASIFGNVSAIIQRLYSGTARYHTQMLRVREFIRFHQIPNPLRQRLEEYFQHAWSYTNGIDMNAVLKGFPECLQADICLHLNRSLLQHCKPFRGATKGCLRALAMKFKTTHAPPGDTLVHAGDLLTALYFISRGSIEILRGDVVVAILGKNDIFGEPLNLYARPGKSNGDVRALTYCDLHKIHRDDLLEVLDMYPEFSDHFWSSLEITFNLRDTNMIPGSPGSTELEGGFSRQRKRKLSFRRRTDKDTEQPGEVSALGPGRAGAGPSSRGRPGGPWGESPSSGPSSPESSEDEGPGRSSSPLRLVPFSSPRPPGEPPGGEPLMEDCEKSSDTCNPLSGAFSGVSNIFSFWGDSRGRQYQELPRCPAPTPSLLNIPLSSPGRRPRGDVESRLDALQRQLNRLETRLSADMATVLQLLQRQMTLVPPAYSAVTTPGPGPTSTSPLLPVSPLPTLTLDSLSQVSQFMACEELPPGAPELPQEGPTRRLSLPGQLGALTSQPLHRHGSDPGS

Question: For `COc1ccc(CNC(=O)c2c(Cl)ccnc2OCC2CC2)cc1F` [Compound 161], which half-life (MLM stability T1/2) is on record?
Answer: 2.08 min

Question: And the fraction unbound [1]?
Answer: 0.039

Question: And the inhibition (CYP1A2)?
Answer: 35%

Question: And the inhibition at 10 µM (CYP1A2; 10 μM)?
Answer: 35.2%

Question: And the “plasma stability (human, 5 h)” value (Plasma stability, human; 5 h)?
Answer: 100%

Question: What about the Plasma stability Human (Plasma stability, human; plasma) of the same compound?
Answer: 100%

Question: What about the inhibition (CYP3A4) of the same compound?
Answer: 15%

Question: What about the inhibition at 10 µM (CYP3A4; 10 μM) of the same compound?
Answer: 14.9%

Question: And the blood alcohol levels ([2]; PO 5 g/kg EtOH, compound PO 40 mg/kg or 60 mg/kg)?
Answer: reduces blood alcohol levels

Question: What about the blood alcohol levels ([2]; PO 5 g/kg alcohol, compound 10 mg/kg IV) of the same compound?
Answer: reduces blood alcohol levels

Question: What about the “PD response (behavior observation)” value ([2]; PO EtOH, then PO 40 mg/kg or 60 mg/kg) of the same compound?
Answer: significant PD response

Question: And the “Aqu. Solu.” value (Aqueous solubility)?
Answer: 28 µg/mL

Question: And the fraction unbound [3]?
Answer: 0.007

Question: What about the inhibition at 10 µM (CYP2C9) of the same compound?
Answer: 5.7%

Question: And the inhibition at 10 µM (CYP2D6)?
Answer: 6.4%

Question: And the inhibition (CYP2C19)?
Answer: 16%

Question: And the inhibition at 10 µM (CYP2C19; 10 μM)?
Answer: 15.9%

Question: What about the IC50 (hERG channel) of the same compound?
Answer: > 30 µM

Question: And the half-life (HLM stability T1/2)?
Answer: 12.4 min
